Source: ChEMBL document CHEMBL1152170 (Bioorg Med Chem Lett, 2008)

Key:
[1] = Stability in rabbit liver microsome after 1 hr; assay type: ADME, Oryctolagus cuniculus; conditions: liver microsomes, read-out: Stability
[2] = Permeability across human Caco-2 cells; assay type: ADME, cell-based; conditions: read-out: permeability

Structure (SMILES) | remaining at 1 h [1] | Papp [2]
CCCc1c(OC)c(NC(=O)C(F)(F)F)cc2c(NCc3ccc(OC)c(Cl)c3)ncnc12 | > 80% | –
CCC(=O)Nc1cc2c(NCc3ccc(OC)c(Cl)c3)ncnc2c(CCO)c1OC | > 80% | 46.9 ×10⁻⁶ cm/s
COc1ccc(CNc2ncnc3c(CCO)c(OC)c(NC(C)=O)cc23)cc1Cl | – | 17.3 ×10⁻⁶ cm/s
